The results in this text go back to PubChem BioAssay AID1745844 (Carcinogenic Potency Database (CPDB), 2022).

Activity calls are given as the source filed them. The rule behind the calls is not given here.

The subject of this series is rodent lifetime carcinogenesis bioassay, tumor incidence TD50. The series can be described thus: carcinogenic potency in animals, long-term in vivo studies, CPDB compilation (AID 1745844).

On to `CC(C)[N+](=O)[O-]`, for which the carcinogen call by setting is: (rat, strain Sprague-Dawley, females, inhaled, site: any site (literature study), lesion: benign tumor, dosed 52 weeks, study length 52 weeks) “negative (inactive)”; (rat, strain Sprague-Dawley, females, inhaled, site: any site (literature study), lesion: benign tumor, dosed 52 weeks, study length 95 weeks) “negative (inactive)”; (rat, strain Sprague-Dawley, females, inhaled, site: any site (literature study), lesion: benign tumor, dosed 95 weeks, study length 95 weeks) “negative (inactive)”; (rat, strain Sprague-Dawley, females, inhaled, site: any site (literature study), lesion: malignant tumor, dosed 52 weeks, study length 52 weeks) “negative (inactive)”; (rat, strain Sprague-Dawley, females, inhaled, site: any site (literature study), lesion: malignant tumor, dosed 52 weeks, study length 95 weeks) “negative (inactive)”; (rat, strain Sprague-Dawley, females, inhaled, site: any site (literature study), lesion: malignant tumor, dosed 95 weeks, study length 95 weeks) “negative (inactive)”. Further, the carcinogen call by setting is: (rat, strain Sprague-Dawley, females, inhaled, site: liver, lesion: one or several types, types not named, dosed 52 weeks, study length 52 weeks) “negative (inactive)”; (rat, strain Sprague-Dawley, females, inhaled, site: liver, lesion: one or several types, types not named, dosed 52 weeks, study length 95 weeks) “negative (inactive)”; (rat, strain Sprague-Dawley, males, inhaled, site: any site (literature study), lesion: benign tumor, dosed 95 weeks, study length 95 weeks) “negative (inactive)”; (rat, strain Sprague-Dawley, males, inhaled, site: any site (literature study), lesion: malignant tumor, dosed 52 weeks, study length 52 weeks) “negative (inactive)”; (rat, strain Sprague-Dawley, males, inhaled, site: any site (literature study), lesion: malignant tumor, dosed 95 weeks, study length 95 weeks) “negative (inactive)”; (rat, strain Sprague-Dawley, males, inhaled, site: liver, lesion: angioma, dosed 52 weeks, study length 95 weeks) “negative (inactive)”. The carcinogen call (rat, strain Sprague-Dawley, males, inhaled, site: liver, lesion: angioma, dosed 95 weeks, study length 95 weeks) was “negative (inactive)” and the carcinogen call (rat, strain Sprague-Dawley, males, inhaled, site: liver, lesion: one or several types, types not named, dosed 52 weeks, study length 52 weeks) was “negative (inactive)”. In addition, the TD50 (as a rule, the 50% point of the dose-response relation for the toxic effect studied) is 293 mg/kg/day (inactive) (rat, strain Sprague-Dawley, females, inhaled, site: liver, lesion: one or several types, types not named, dosed 95 weeks, study length 95 weeks); 9.06 mg/kg/day (inactive) (rat, strain Sprague-Dawley, males, inhaled, site: any site (literature study), lesion: benign tumor, dosed 52 weeks, study length 52 weeks); 7.78 mg/kg/day (inactive) (rat, strain Sprague-Dawley, males, inhaled, site: any site (literature study), lesion: benign tumor, dosed 52 weeks, study length 95 weeks); 23.6 mg/kg/day (inactive) (rat, strain Sprague-Dawley, males, inhaled, site: any site (literature study), lesion: malignant tumor, dosed 52 weeks, study length 95 weeks).

Regarding `C=Cc1cccc(C)c1`, the carcinogen call is, setting by setting: (mouse, strain B6C3F1, females, inhaled, site: any site (literature study), lesion: several types, types named in the paper, dosed 103 weeks, study length 104 weeks) “negative (inactive)”; (mouse, strain B6C3F1, males, inhaled, site: any site (literature study), lesion: several types, types named in the paper, dosed 103 weeks, study length 104 weeks) “negative (inactive)”; (rat, strain Fischer 344, males, inhaled, site: any site (literature study), lesion: several types, types named in the paper, dosed 103 weeks, study length 104 weeks) “negative (inactive)”. Further, the TD50 is 750 mg/kg/day (mouse, strain B6C3F1, females, inhaled, site: lung, lesion: alveolar/bronchiolar adenoma + alveolar/bronchiolar carcinoma, dosed 103 weeks, study length 104 weeks) and 312 mg/kg/day (inactive) (rat, strain Fischer 344, females, inhaled, site: any site (literature study), lesion: several types, types named in the paper, dosed 103 weeks, study length 104 weeks).

For the molecule `OC[C@H]1OC(OC[C@H]2O[C@H](O)[C@H](O)[C@@H](O)[C@@H]2O)[C@H](O)[C@@H](O)[C@@H]1O` (stereo partly drawn), for the setting “mouse, strain Charles River CD1, females, in feed, site: liver, lesion: one or several types, types not named, dosed 80 weeks, study length 80 weeks”, the carcinogen call was “negative (inactive)”. In addition, the TD50 (mouse, strain Charles River CD1, males, in feed, site: liver, lesion: hepatocellular adenoma, dosed 80 weeks, study length 80 weeks) was 46300 mg/kg/day (inactive).

Where the note is “mouse, strain Ha/ICR, females, i.p., site: lung, lesion: papillary tumor, dosed 64 weeks, study length 64 weeks”, `CCOP(=O)(CC1CO1)OCC` (stereo not drawn) showed a TD50 of 12.4 mg/kg/day.

Consider `NCCS(=O)(=O)O`, for which the carcinogen call is “negative (inactive)” (rat, strain Wistar, females, in feed, site: mammary gland, lesion: fibroadenoma, dosed 78 weeks, study length 78 weeks) and “negative (inactive)” (rat, strain Wistar, males, in feed, site: mammary gland, lesion: fibroadenoma, dosed 78 weeks, study length 78 weeks).

Regarding `Nc1cc([N+](=O)[O-])ccc1O`, the carcinogen call is, setting by setting: (mouse, strain B6C3F1, females, by gavage, site: any site (literature study), lesion: several types, types named in the paper, dosed 103 weeks, study length 105 weeks) “negative (inactive)”; (rat, strain Fischer 344, females, by gavage, site: any site (literature study), lesion: several types, types named in the paper, dosed 103 weeks, study length 105 weeks) “negative (inactive)”. Further, the TD50 was 2160 mg/kg/day (mouse, strain B6C3F1, females, by gavage, site: liver, lesion: hepatocellular adenoma + hepatocellular carcinoma + neoplastic nodule, dosed 103 weeks, study length 105 weeks); 2180 mg/kg/day (mouse, strain B6C3F1, females, by gavage, site: lung, lesion: alveolar/bronchiolar adenoma + alveolar/bronchiolar carcinoma, dosed 103 weeks, study length 105 weeks); 798 mg/kg/day (inactive) (mouse, strain B6C3F1, males, by gavage, site: abdominal cavity + liver + mesenteric lymph node + pancreas + spleen + subcutaneous tissue, lesion: hemangioma + hemangiosarcoma, dosed 103 weeks, study length 105 weeks); 582 mg/kg/day (mouse, strain B6C3F1, males, by gavage, site: any site (literature study), lesion: several types, types named in the paper, dosed 103 weeks, study length 105 weeks); 84.1 mg/kg/day (rat, strain Fischer 344, males, by gavage, site: any site (literature study), lesion: several types, types named in the paper, dosed 103 weeks, study length 105 weeks); 839 mg/kg/day (rat, strain Fischer 344, males, by gavage, site: kidney cortex, lesion: adenoma, NOS, dosed 103 weeks, study length 105 weeks). Further, the TD50 (rat, strain Fischer 344, males, by gavage, site: liver, lesion: hepatocellular adenoma + hepatocellular carcinoma + neoplastic nodule, dosed 103 weeks, study length 105 weeks) is 1300 mg/kg/day; the TD50 (rat, strain Fischer 344, males, by gavage, site: liver, lesion: hepatocellular carcinoma + neoplastic nodule, dosed 103 weeks, study length 105 weeks) came to 1300 mg/kg/day; the TD50 (rat, strain Fischer 344, males, by gavage, site: subcutaneous tissue, lesion: fibroma, dosed 103 weeks, study length 105 weeks) amounted to 584 mg/kg/day; the TD50 (rat, strain Fischer 344, males, by gavage, site: subcutaneous tissue, lesion: fibrosarcoma + fibroma + neurofibrosarcoma + sarcoma, NOS, dosed 103 weeks, study length 105 weeks) is 458 mg/kg/day; the TD50 (rat, strain Fischer 344, males, by gavage, site: testis, lesion: interstitial-cell tumor, dosed 103 weeks, study length 105 weeks) worked out at 68.2 mg/kg/day.

Take `CCCl`: the TD50 (mouse, strain B6C3F1, females, inhaled, site: all sites, lesion: malignant lymphoma, histiocytic type + malignant lymphoma, mixed type + malignant lymphoma, lymphocytic type + malignant lymph, dosed 100 weeks, study length 100 weeks) stood at 9960 mg/kg/day; the TD50 (mouse, strain B6C3F1, females, inhaled, site: any site (literature study), lesion: several types, types named in the paper, dosed 100 weeks, study length 100 weeks) worked out at 1380 mg/kg/day; the TD50 (mouse, strain B6C3F1, females, inhaled, site: liver, lesion: hepatocellular adenoma + hepatocellular carcinoma + neoplastic nodule, dosed 100 weeks, study length 100 weeks) was determined as 7220 mg/kg/day; the TD50 (mouse, strain B6C3F1, females, inhaled, site: liver, lesion: hepatocellular adenoma + hepatocellular carcinoma, dosed 100 weeks, study length 100 weeks) was 7220 mg/kg/day; the TD50 (mouse, strain B6C3F1, females, inhaled, site: liver, lesion: hepatocellular carcinoma, dosed 100 weeks, study length 100 weeks) was 7580 mg/kg/day; the TD50 (mouse, strain B6C3F1, females, inhaled, site: lung, lesion: alveolar/bronchiolar adenoma + alveolar/bronchiolar carcinoma, dosed 100 weeks, study length 100 weeks) is 8640 mg/kg/day. Moreover, the TD50 by setting is: (mouse, strain B6C3F1, females, inhaled, site: uterus, lesion: carcinoma, dosed 100 weeks, study length 100 weeks) 1810 mg/kg/day; (mouse, strain B6C3F1, males, inhaled, site: any site (literature study), lesion: several types, types named in the paper, dosed 100 weeks, study length 100 weeks) 10100 mg/kg/day; (mouse, strain B6C3F1, males, inhaled, site: liver, lesion: hepatocellular adenoma + hepatocellular carcinoma + neoplastic nodule, dosed 100 weeks, study length 100 weeks) 34100 mg/kg/day; (mouse, strain B6C3F1, males, inhaled, site: lung, lesion: alveolar/bronchiolar adenoma + alveolar/bronchiolar carcinoma, dosed 100 weeks, study length 100 weeks) 9910 mg/kg/day; (mouse, strain B6C3F1, males, inhaled, site: lung, lesion: alveolar/bronchiolar adenoma, dosed 100 weeks, study length 100 weeks) 12700 mg/kg/day; (rat, strain Fischer 344, females, inhaled, site: any site (literature study), lesion: several types, types named in the paper, dosed 102 weeks, study length 105 weeks) 2660 mg/kg/day. Besides, the TD50 is, setting by setting: (rat, strain Fischer 344, females, inhaled, site: brain, lesion: astrocytoma, malignant, dosed 102 weeks, study length 105 weeks) 21000 mg/kg/day; (rat, strain Fischer 344, females, inhaled, site: uterus, lesion: endometrial stromal polyp, dosed 102 weeks, study length 105 weeks) 10200 mg/kg/day; (rat, strain Fischer 344, males, inhaled, site: any site (literature study), lesion: several types, types named in the paper, dosed 102 weeks, study length 105 weeks) 1600 mg/kg/day; (rat, strain Fischer 344, males, inhaled, site: liver, lesion: hepatocellular adenoma + hepatocellular carcinoma + neoplastic nodule, dosed 102 weeks, study length 105 weeks) 47700 mg/kg/day; (rat, strain Fischer 344, males, inhaled, site: skin, lesion: basal-cell carcinoma + sebaceous adenoma + trichoepithelioma, dosed 102 weeks, study length 105 weeks) 3210 mg/kg/day; (rat, strain Fischer 344, males, inhaled, site: skin, lesion: basal-cell carcinoma, dosed 102 weeks, study length 105 weeks) 4970 mg/kg/day.

For `CC(=O)NN`, the TD50 was 18.8 mg/kg/day (mouse, strain Swiss, females, by gavage, site: lung, lesion: several types, types named in the paper, dosed 34 weeks, study length 95 weeks); 53.8 mg/kg/day (mouse, strain Swiss, females, by gavage, site: lung, lesion: several types, types named in the paper, dosed 95 weeks, study length 95 weeks); 4.48 mg/kg/day (mouse, strain Swiss, males, by gavage, site: lung, lesion: several types, types named in the paper, dosed 34 weeks, study length 95 weeks); 35.6 mg/kg/day (mouse, strain Swiss, males, by gavage, site: lung, lesion: several types, types named in the paper, dosed 95 weeks, study length 95 weeks).
